Results: patent US20150087641A1, “HETEROCYCLIC CGRP RECEPTOR ANTAGONISTS” (Merck Sharp & Dohme Corp., priority 2012, published 2015)

Target: T1, recombinant human CL receptor/RAMP1 (Homo sapiens, UniProt O60894+Q16602)
T1 construct: expressed in transfected cells
Assay: Recombinant receptor functional assay (cAMP, HTRF)
Type: cell-based
Settings: HEK 293 cells expressing human CL receptor/RAMP1; antagonism of 1.2 nM human α-CGRP-stimulated cAMP
Protocol: RECOMBINANT RECEPTOR: Human CL receptor (Genbank accession number L76380) was subcloned into the expression vector pIREShyg2 (BD Biosciences Clontech) as a 5′NheI and 3′ PmeI fragment. Human RAMP1 (Genbank accession number AJ001014) was subcloned into the expression vector pIRESpuro2 (BD Biosciences Clontech) as a 5′NheI and 3′NotI fragment. HEK 293 cells (human embryonic kidney cells; ATCC #CRL-1573) were cultured in DMEM with 4.5 g/L glucose, 1 mM sodium pyruvate and 2 mM glutamine supplemented with 10% fetal bovine serum (FBS), 100 units/mL penicillin and 100 μg/mL streptomycin, and maintained at 37° C. and 95% humidity. Cells were subcultured by treatment with 0.25% trypsin with 0.1% EDTA in HBSS. Stable cell line generation was accomplished by co-transfecting 10 μg of DNA with 30 μg Lipofectamine 2000 (Invitrogen) in 75 cm^2 flasks. CL receptor and RAMP1 expression constructs were co-transfected in equal amounts. […]
RECOMBINANT RECEPTOR FUNCTIONAL ASSAY: Cells were resuspended in DMEM/F12 (Hyclone) supplemented with 1 g/L BSA and 300 μM isobutyl-methylxanthine. […] Raw data were transformed into concentration of cAMP using a standard curve then dose response curves were plotted and inflection point (IP) values were determined.

T1 sequence (Q16602 23-461): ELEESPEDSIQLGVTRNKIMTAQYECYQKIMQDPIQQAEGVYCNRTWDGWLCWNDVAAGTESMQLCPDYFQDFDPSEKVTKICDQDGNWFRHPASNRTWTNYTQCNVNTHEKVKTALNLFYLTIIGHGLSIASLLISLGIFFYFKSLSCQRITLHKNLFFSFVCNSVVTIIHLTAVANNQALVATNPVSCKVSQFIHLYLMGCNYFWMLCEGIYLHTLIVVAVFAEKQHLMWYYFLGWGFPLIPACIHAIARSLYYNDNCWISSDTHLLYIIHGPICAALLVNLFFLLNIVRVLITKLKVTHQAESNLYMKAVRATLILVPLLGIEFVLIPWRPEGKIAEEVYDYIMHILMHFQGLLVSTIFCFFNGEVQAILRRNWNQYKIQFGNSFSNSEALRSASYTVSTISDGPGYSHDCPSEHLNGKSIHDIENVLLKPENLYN
T1 sequence (O60894 27-148): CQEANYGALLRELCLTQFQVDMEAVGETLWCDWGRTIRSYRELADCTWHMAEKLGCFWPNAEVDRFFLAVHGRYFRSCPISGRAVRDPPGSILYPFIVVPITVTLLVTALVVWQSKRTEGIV

SMILES: C[C@@H]1[C@H](c2ccccc2)C[C@H](NC(=O)c2ccc3c(c2)CC2(C3)OC(=O)Nc3ncccc32)C(=O)N1CC(F)(F)F (stereo partly drawn) [Example 1, N-((3S,5S,6R)-6-Methyl-2-oxo-5-phenyl-1-(2,2,2-trifluoroethyl)piperidin-3-yl)-2′-oxo-1,1′,2′,3-tetrahydrospiro[indene-2,4′-pyrido[2,3-d][1,3]oxazine]-5-carboxamide]
- IC50: 89 nM
